Data from patent publication US8754068B2, “Modified C-3 betulinic acid derivatives as HIV maturation inhibitors” (priority 2010, dated 2014).

Test system: recombinant NL4-3 virus (Renilla luciferase in nef, Gag P373S)
Assay: HIV cell culture assay (luciferase reporter virus in MT-2 cells)
Format: cell-based
Conditions: NL43
Method: HIV cell culture assay—MT-2 cells and 293T cells were obtained from the NIH AIDS Research and Reference Reagent Program. MT-2 cells were propagated in RPMI 1640 media supplemented with 10% heat inactivated fetal bovine serum, […]. The 293T cells were propagated in DMEM media supplemented with 10% heat inactivated fetal bovine serum (FBS), 100 units/ml penicillin G and 100 μg/ml streptomycin. The proviral DNA clone of NL4-3 was obtained from the NIH AIDS Research and Reference Reagent Program. A recombinant NL4-3 virus, in which a section of the nef gene from NL4-3 was replaced with the Renilla luciferase gene, was used as a reference virus. In addition, residue Gag P373 was converted to P373S. Briefly, the recombinant virus was prepared by transfection of the altered proviral clone of NL4-3. Transfections were performed in 293T cells using LipofectAMINE PLUS from Invitrogen (Carlsbad, Calif.), according to manufacturer's instruction. The virus was titered in MT-2 cells using luciferase enzyme activity as a marker. Luciferase was quantitated using the Dual Luciferase kit from Promega (Madison, Wis.), with modifications to the manufacturer's protocol. The diluted Passive Lysis solution was pre-mixed with the re-suspended Luciferase Assay Reagent and the re-suspended Stop & Glo Substrate (2:1:1 ratio). Fifty (50) μL of the mixture was added to each aspirated well on assay plates and luciferase activity was measured immediately on a Wallac TriLux (Perkin-Elmer). Antiviral activities of inhibitors toward the recombinant virus were quantified by measuring luciferase activity in cells infected for 4-5 days with NLRluc recombinants in the presence serial dilutions of the inhibitor. Table 1 is the key for the data in Table 2.

Structure (SMILES)	EC50 [nM]
C=C(C)[C@@H]1CC[C@]2(CO)CC[C@]3(C)[C@H](CC[C@@H]4[C@@]5(C)CC=C(c6ccc(NS(C)(=O)=O)cc6)C(C)(C)[C@@H]5CC[C@]43C)[C@@H]12 [Example 5i, N-(4-((1R,3aS,5aR,5bR,7aR,11aS,11bR,13aR,13bR)-3a-(hydroxymethyl)-5a,5b,8,8,11a-pentamethyl-1-(prop-1-en-2-yl)-2,3,3a,4,5,5a,5b,6,7,7a,8,11,11a,11b,12,13,13a,13b-octadecahydro-1H-cyclopenta[a]chrysen-9-yl)phenyl)methanesulfonamide]	> 1000
C=C(C)[C@@H]1CC[C@]2(C(=O)O)CC[C@]3(C)[C@H](CC[C@@H]4[C@@]5(C)CC=C(c6ccc(CCC(=O)O)cc6)C(C)(C)[C@@H]5CC[C@]43C)[C@@H]12 [Example 4a, (1R,3aS,5aR,5bR,7aR,11aS,11bR,13aR,13bR)-9-(4-(2-carboxyethyl)phenyl)-5a,5b,8,8,11a-pentamethyl-1-(prop-1-en-2-yl)-2,3,3a,4,5,5a,5b,6,7,7a,8,11,11a,11b,12,13,13a,13b-octadecahydro-1H-cyclopenta[a]chrysene-3a-carboxylic acid]	< 1000
C=C(C)[C@@H]1CC[C@]2(CO)CC[C@]3(C)[C@H](CC[C@@H]4[C@@]5(C)CC=C(c6ccc(O)c(Cl)c6)C(C)(C)[C@@H]5CC[C@]43C)[C@@H]12 [Example 5g, 2-chloro-4-((1R,3aS,5aR,5bR,7aR,11aS,11bR,13aR,13bR)-3a-(hydroxymethyl)-5a,5b,8,8,11a-pentamethyl-1-(prop-1-en-2-yl)-2,3,3a,4,5,5a,5b,6,7,7a,8,11,11a,11b,12,13,13a,13b-octadecahydro-1H-cyclopenta[a]chrysen-9-yl)phenol]	> 1000
C=C(C)[C@@H]1CC[C@]2(CO)CC[C@]3(C)[C@H](CC[C@@H]4[C@@]5(C)CC=C(c6ccc(O)cc6C)C(C)(C)[C@@H]5CC[C@]43C)[C@@H]12 [Example 5h, 4-((1R,3aS,5aR,5bR,7aR,11aS,11bR,13aR,13bR)-3a-(hydroxymethyl)-5a,5b,8,8,11a-pentamethyl-1-(prop-1-en-2-yl)-2,3,3a,4,5,5a,5b,6,7,7a,8,11,11a,11b,12,13,13a,13b-octadecahydro-1H-cyclopenta[a]chrysen-9-yl)-3-methylphenol]	> 1000
C=C(C)[C@@H]1CC[C@]2(CO)CC[C@]3(C)[C@H](CC[C@@H]4[C@@]5(C)CC=C(c6csc(C(=O)O)c6)C(C)(C)[C@@H]5CC[C@]43C)[C@@H]12 [Example 5d, 4-((1R,3aS,5aR,5bR,7aR,11aS,11bR,13bR)-3a-(hydroxymethyl)-5a,5b,8,8,11a-pentamethyl-1-(prop-1-en-2-yl)-2,3,3a,4,5,5a,5b,6,7,7a,8,11,11a,11b,12,13,13a,13b-octadecahydro-1H-cyclopenta[a]chrysen-9-yl)thiophene-2-carboxylic acid]	< 1000
C=C(C)[C@@H]1CC[C@]2(CO)CC[C@]3(C)[C@H](CC[C@@H]4[C@@]5(C)CC=C(c6ccc(C(=O)O)cc6Cl)C(C)(C)[C@@H]5CC[C@]43C)[C@@H]12 [Example 5n, 3-chloro-4-((1R,3aS,5aR,5bR,7aR,11aS,11bR,13aR,13bR)-3a-(hydroxymethyl)-5a,5b,8,8,11a-pentamethyl-1-(prop-1-en-2-yl)-2,3,3a,4,5,5a,5b,6,7,7a,8,11,11a,11b,12,13,13a,13b-octadecahydro-1H-cyclopenta[a]chrysen-9-yl)benzoic acid]	< 1000
C[C@H]1[C@H](C)CC[C@]2(C(=O)O)CC[C@]3(C)C(=CC[C@@H]4[C@@]5(C)CC=C(c6ccc(C(=O)O)cc6)C(C)(C)[C@@H]5CC[C@]43C)[C@H]12 [Example 12, (1S,2R,4aS,6aS,6bR,8aR,12aS,12bR,14bS)-10-(4-carboxyphenyl)-1,2,6a,6b,9,9,12a-heptamethyl-1,2,3,4,4a,5,6,6a,6b,7,8,8a,9,12,12a,12b,13,14b-octadecahydropicene-4-a-carboxylic acid]	< 1000
C=C(C)[C@@H]1CC[C@]2(C(=O)O)CC[C@]3(C)[C@H](CC[C@@H]4[C@@]5(C)CC=C(c6ccc(C7(C(=O)O)CC7)cc6)C(C)(C)[C@@H]5CC[C@]43C)[C@@H]12 [Example 4c, (1R,3aS,5aR,5bR,7aR,11aS,11bR,13aR,13bR)-9-(4-(1-carboxycyclopropyl)phenyl)-5a,5b,8,8,11a-pentamethyl-1-(prop-1-en-2-yl)-2,3,3a,4,5,5a,5b,6,7,7a,8,11,11a,11b,12,13,13a,13b-octadecahydro-1H-cyclopenta[a]chrysene-3a-carboxylic acid]	< 1000
C=C(C)[C@@H]1CC[C@]2(C(=O)OC)CC[C@]3(C)[C@H](CC[C@@H]4[C@@]5(C)CC=C(c6cccc(C(=O)O)c6)C(C)(C)[C@@H]5CC[C@]43C)[C@@H]12 [Example 1a, 3-((1R,3aS,5aR,5bR,7aR,11aS,13aR,13bR)-3a-(methoxycarbonyl)-5a,5b,8,8,11a-pentamethyl-1-(prop-1-en-2-yl)-2,3,3a,4,5,5a,5b,6,7,7a,8,11,11a,11b,12,13,13a,13b-octadecahydro-1H-cyclopenta[a]chrysen-9-yl)benzoic acid]	> 1000
C=C(C)[C@@H]1CC[C@]2(C(=O)O)CC[C@]3(C)[C@H](CC[C@@H]4[C@@]5(C)CC=C(c6cccc(NS(C)(=O)=O)c6)C(C)(C)[C@@H]5CC[C@]43C)[C@@H]12 [Example 4g, (1R,3aS,5aR,5bR,7aR,11aS,11bR,13aR,13bR)-5a,5b,8,8,11a-pentamethyl-9-(3-(methylsulfonamido)phenyl)-1-(prop-1-en-2-yl)-2,3,3a,4,5,5a,5b,6,7,7a,8,11,11a,11b,12,13,13a,13b-octadecahydro-1H-cyclopenta[a]chrysene-3a-carboxylic acid]	> 1000
C=C(C)[C@@H]1CC[C@]2(C(=O)O)CC[C@]3(C)[C@H](CC[C@@H]4[C@@]5(C)CC=C(c6ccc(S(C)(=O)=O)cc6)C(C)(C)[C@@H]5CC[C@]43C)[C@@H]12 [Example 4j, (1R,3aS,5aR,5bR,7aR,11aS,11bR,13aR,13bR)-5a,5b,8,8,11a-pentamethyl-9-(4-(methylsulfonyl)phenyl)-1-(prop-1-en-2-yl)-2,3,3a,4,5,5a,5b,6,7,7a,8,11,11a,11b,12,13,13a,13b-octadecahydro-1H-cyclopenta[a]chrysene-3a-carboxylic acid]	> 1000
C=C(C)[C@@H]1CC[C@]2(C(=O)O)CC[C@]3(C)[C@H](CC[C@@H]4[C@@]5(C)CC=C(c6ccc(O)cc6)C(C)(C)[C@@H]5CC[C@]43C)[C@@H]12 [Example 4f, (1R,3aS,5aR,5bR,7aR,11aS,11bR,13aR,13bR)-9-(4-hydroxyphenyl)-5a,5b,8,8,11a-pentamethyl-1-(prop-1-en-2-yl)-2,3,3a,4,5,5a,5b,6,7,7a,8,11,11a, 11b,12,13,13a,13b-octadecahydro-1H-cyclopenta[a]chrysene-3a-carboxylic acid]	< 1000
C=C(C)[C@@H]1CC[C@]2(C(=O)O)CC[C@]3(C)[C@H](CC[C@@H]4[C@@]5(C)CC=C(c6cccc(C(=O)O)c6)C(C)(C)[C@@H]5CC[C@]43C)[C@@H]12 [Example 2a, (1R,3aS,5aR,5bR,7aR,11aS,13aR,13bR)-9-(3-carboxyphenyl)-5a,5b,8,8,11a-pentamethyl-1-(prop-1-en-2-yl)-2,3,3a,4,5,5a,5b,6,7,7a,8,11,11a,11b,12,13,13a,13b-octadecahydro-1H-cyclopenta[a]chrysene-3a-carboxylic acid]	> 1000
C=C(C)[C@@H]1CC[C@]2(CO)CC[C@]3(C)[C@H](CC[C@@H]4[C@@]5(C)CC=C(c6cc(C(=O)O)[nH]n6)C(C)(C)[C@@H]5CC[C@]43C)[C@@H]12 [Example 8, 3-((1R,3aS,5aR,5bR,7aR,11aS,11bR,13aR,13bR)-3a-(hydroxymethyl)-5a,5b,8,8,11a-pentamethyl-1-(prop-1-en-2-yl)-2,3,3a,4,5,5a,5b,6,7,7a,8,11,11a,11b,12,13,13a,13b-octadecahydro-1H-cyclopenta[a]chrysen-9-yl)-1H-pyrazole-5-carboxylic acid]	< 1000
C=C(C)[C@@H]1CC[C@]2(CO)CC[C@]3(C)[C@H](CC[C@@H]4[C@@]5(C)CC=C(c6ccc(C(=O)O)c(Cl)c6)C(C)(C)[C@@H]5CC[C@]43C)[C@@H]12 [Example 5a, 2-chloro-4-((1R,3aS,5aR,5bR,7aR,11aS,11bR,13bR)-3a-(hydroxymethyl)-5a,5b,8,8,11a-pentamethyl-1-(prop-1-en-2-yl)-2,3,3a,4,5,5a,5b,6,7,7a,8,11,11a,11b,12,13,13a,13b-octadecahydro-1H-cyclopenta[a]chrysen-9-yl)benzoic acid]	< 1000
C=C(C)[C@@H]1CC[C@]2(CO)CC[C@]3(C)[C@H](CC[C@@H]4[C@@]5(C)CC=C(c6ccc(C(=O)O)cc6C)C(C)(C)[C@@H]5CC[C@]43C)[C@@H]12 [Example 5r, 4-((1R,3aS,5aR,5bR,7aR,11aS,11bR,13aR,13bR)-3a-(hydroxymethyl)-5a,5b,8,8,11a-pentamethyl-1-(prop-1-en-2-yl)-2,3,3a,4,5,5a,5b,6,7,7a,8,11,11a,11b,12,13,13a,13b-octadecahydro-1H-cyclopenta[a]chrysen-9-yl)-3-methylbenzoic acid]	< 1000
